The record followed here is US5484934A, “Isothiazole derivatives, a process for production thereof and uses thereof” (Nihon Nohyaku Co., Ltd., priority 1992, dated 1996).

One test has as its system Alternaria mali. Briefly: Inhibition of hypha growth on malt extract agar, Alternaria mali. The settings on record: read-out: Controlling effect (growth inhibition rate) ALM.
The test system of the next test is Fusarium oxysporum. The experiment in a line: Inhibition of hypha growth on malt extract agar, Fusarium oxysporum. The settings on record: read-out: Controlling effect (growth inhibition rate) FUO.
In another test the test system is Pyricularia oryzae. The experiment in a line: whole plant or invertebrate. The format is in vivo. The conditions noted are these: 168 h, read-out: Controlling effect Ps (rice blast).
A further test deals with Tyromyces palustris. The experiment in a line: Inhibition of hypha growth on malt extract agar, Tyromyces palustris. The conditions noted are these: read-out: Controlling effect (growth inhibition rate) TYP.
Test [1] relates to Cladosporium cladosporioides. Briefly: Inhibition of hypha growth on malt extract agar, Cladosporium cladosporioides. The settings on record: read-out: Controlling effect (growth inhibition rate) CLC.
Protocol: (§1) Each preparation to be tested was added to malt extract agar medium to adjust the concentration to 50 ppm, and the resulting mixture was dispensed into Petri dishes. As an inoculum, a prepared mycerial tuft of each test fungus was punched out together with agar by means of a 4-mm-diameter cork borer and inoculated on medium. The incubation temperature was adjusted to 28±2° .C (or 18±2° C. in the case of Selupula lacrymas).
(§2) The diameter of mycerial tuft was measured 2 to 10 days after the inoculation, and the inhibition rate of hypha growth (the following equation) was measured.
For the next test, the system named is Coriolus versicolor. The experiment in a line: Inhibition of hypha growth on malt extract agar, Coriolus versicolor. The conditions noted are these: Trametes versicolor, 28±2° C., 2 to 10 days, read-out: Controlling effect (growth inhibition rate) COV. The format is cell-based.
Another test deals with Botrytis cinerea. The experiment in a line: Controlling effect (curing effect) on cucumber gray mold. The format is in vivo. The conditions noted are these: 72 h, immersion of inoculated cotyledons, 15° C., read-out: Controlling effect Bc (cucumber gray mold). The method, then: Controlling effect (curing effect) on cucumber gray mold The cotyledons of potted cucumber plants at the 1 leaf stage were cut off and each of them was inoculated with a mycelial tuft of gray mold fungus (Botrytis cinerea) cultured on PSA medium. After having been placed in a moist chamber at 15° C. for 24 hours, the cotyledons were immersed in a 200 ppm liquid chemical containing each compound of the present invention as active ingredient. […]

In test [2] the test system is Pseudoperonospora cubensis. The experiment in a line: Controlling effect on cucumber Downy mildew. The format is in vivo. The settings on record: 168 h, 200 ppm spray, inoculation after 24 hours, read-out: Controlling effect Pc (cucumber downy mildew).
In the next test the test system is Serpula lacrymans. The experiment in a line: Inhibition of hypha growth on malt extract agar, Serpula lacrymans. The settings on record: read-out: Controlling effect (growth inhibition rate) SEL.
Another test has as its system Chaetomium globosum. The experiment in a line: Inhibition of hypha growth on malt extract agar, Chaetomium globosum. The conditions noted are these: read-out: Controlling effect (growth inhibition rate) CHG.
Another test has as its system Aspergillus niger. The experiment in a line: Inhibition of hypha growth on malt extract agar, Aspergillus niger. The conditions noted are these: read-out: Controlling effect (growth inhibition rate) ASN.
For the next test, the system named is Phytophthora infestants. The experiment in a line: whole plant or invertebrate. The format is in vivo. The settings on record: 168 h; read-out: Controlling effect Pi (tomato late blight).
A further test has as its system Rhizopus nigricans. Briefly: Inhibition of hypha growth on malt extract agar, Rhizopus nigricans. The conditions noted are these: Rhizopus stolonifer, read-out: Controlling effect (growth inhibition rate) RHS.
For the next test, the system named is Trichoderma viride. Briefly: Inhibition of hypha growth on malt extract agar, Trichoderma viride. The settings on record: read-out: Controlling effect (growth inhibition rate) TRV.

Protocol for Alternaria mali: as §1, §2
(§3) The controlling effect was evaluated according to the following criterion.
Protocol for Aspergillus niger: as §1, §2, §3
Protocol for Chaetomium globosum: as §1, §2, §3
Protocol for Fusarium oxysporum: as §1, §2, §3
Protocol for Rhizopus nigricans: as §1, §2
Protocol for Trichoderma viride: as §1, §2
Protocol for Tyromyces palustris: as §1, §2

As to `COc1nsc(S(C)(=O)=O)c1C#N` [Compound 20, 3-methoxy-4-cyano-5-methylsulfonylisothiazole], the inhibition at 50 ppm (with Alternaria mali; in the test with Fusarium oxysporum; with Tyromyces palustris; in test [1]; in the test with Coriolus versicolor; with Serpula lacrymans) was 100% in each case. The inhibition at 50 ppm in the test with Chaetomium globosum, with Aspergillus niger, in the test on Rhizopus nigricans and in the test with Trichoderma viride was 100% in each case. Also, the pest or weed control at 200 ppm with Pyricularia oryzae was in the range of 95 to 100%; in the test on Botrytis cinerea, 60 to 79%; in test [2], 95 to 100%; with Phytophthora infestants, 95 to 100%.

The term inhibition denotes the drop in the measured response relative to a control, in per cent.
